Results reported in patent US12134784B2, “Method for preparing intestinal tract cell layer derived from pluripotent stem cell” (PUBLIC UNIVERSITY CORPORATION NAGOYA CITY UNIVERSITY, priority 2018, dated 2024).

How the values were obtained:
[1] = tested on: CYP3A4
[2] = tested on: CYP3A4; experiment: Inducibility of CYP3A4 in human intestinal organoid differentiated by using a polysaccharide polymer; conditions: VD3 1 μmol/L, 72 hours
[3] = tested on: human iPS cell-derived intestinal organoid; experiment: Inflammatory bowel disease model using intestinal organoid (TNF-α addition); type: cell-based
Description: (A) Protocol for preparation of an inflammatory bowel disease model. (B) The mRNA expression analysis of an intestinal organoid in the cases of TNF-α and infliximab addition. Average±S.D. (n=3). The mRNA expression level of the control was regarded as 1. (C) Immunofluorescent staining of an intestinal organoid in the cases of TNF-α and infliximab addition. DAPI: Nuclear staining. Scale bar: 50 μm.
(§1) To prepare an inflammatory bowel disease model and a fibrosis model, 30 ng/mL TNF-α and 30 ng/mL TNF-α+2 ng/mL TGF-β were added for 96 hours and 48 hours from Day 34 after completion of differentiation induction, respectively. To suppress these reactions, 100 ng/mL infliximab (anti-TNF-α antibody) for the inflammatory bowel disease model and 20 μM SB431542 or 20 μM Repsox serving as a TGF-β inhibitor, for fibrosis model were added, respectively, for the same length of time as above. Note that, to enhance the function of an intestinal organoid, PD98059, 5-aza-2′-deoxycytidine, A-83-01 and N-[(3,5-difluorophenyl) acetyl]-L-alanyl-2-phenyl-1,l-dimethylethylester-glycine (DAPT) were added from Day 19 after initiation of differentiation induction to the completion of differentiation. The addition effects in these cases were checked.
Whether an inflammatory bowel disease model can be prepared by using an intestinal organoid prepared by a new differentiation induction method was investigated by adding a main cause, i.e., an inflammatory cytokine, TNF-α, from Day 34 after completion of differentiation induction up to 96 hours (FIG. 7A). The expressions of villin and MUC2 gene decreased by addition of TNF-α; however, the expression of TNF-α increased. The decrease/increase in expression was suppressed by addition of an anti-TNF-α antibody, infliximab (FIG. 7B). Subsequently, expressions of a tight junction protein and an apoptosis marker were confirmed by immunofluorescent staining. It was observed that a tight junction structure is destroyed by addition of TNF-α. The number of cells positive to Caspase-3 increased. These changes were not found in an infliximab addition group (FIG. 7C). In inflammatory bowel disease, it is reported that an inflammatory cytokine affects in-vivo intestinal epithelial cells to destroy tight junction, with the result that the number of mucus secretory cells, i.e., goblet cells, decreases.

[4] = tested on: human iPS cell-derived intestinal organoid; experiment: Fibrosis model using intestinal organoid (TNF-α and TGF-β addition); type: cell-based; conditions: 20 μM inhibitor with 30 ng/mL TNF-α+2 ng/mL TGF-β, 48 hours
Description: (A) A protocol for preparation of a fibrosis model. (B) The mRNA expression analysis of an intestinal organoid in the cases of addition of TNF-α+TGF-β and TGF-β inhibitor (SB431542, Repsox). Average±S.D. (n=3). The mRNA expression level of the control was regarded as 1.
as §1
In order to reproduce fibrosis of a tissue in-vitro, which is developed by chronic inflammation in inflammatory bowel disease, TNF-α and TGF-β, each are reported as a main cause, were added for 48 hours from Day 34 after completion of differentiation induction (FIG. 8A). […]

[5] = tested on: CYP3A4; experiment: CYP3A4 metabolic activity of human intestinal organoid (midazolam, LC-MS/MS); conditions: 5 μmol/L midazolam, 24 hours; addition of ketoconazole
[6] = 30 ng/mL TNF-α, 96 hours from Day 34

C=C1/C(=C\C=C2/CCC[C@]3(C)[C@@H]([C@H](C)CCCC(C)(C)O)CC[C@@H]23)C[C@@H](O)C[C@@H]1O [activated vitamin D3, 1α, 25-dihydroxy vitamin D3]
mRNA expression level of CYP3A4 increased [1]: about 1700 fold | metabolic activity of midazolam ([2]; 5 μmol/L midazolam, 24 hours): significantly increased | mRNA expression of CYP3A4 ([2]; compared to control group): significantly induced

infliximab: anti-TNF-α antibody
destruction of tight junction structure and increase of Caspase-3 positive cells (immunofluorescent staining) ([3]; 100 ng/mL infliximab with 30 ng/mL TNF-α, 96 hours): not found | decrease/increase in expression (villin, MUC2, TNF-α) caused by TNF-α ([3]; 100 ng/mL infliximab with 30 ng/mL TNF-α, 96 hours from Day 34): suppressed

NC(=O)c1ccc(-c2nc(-c3ccc4c(c3)OCO4)c(-c3ccccn3)[nH]2)cc1 [SB431542]
decrease/increase in expression of fibrosis markers caused by TNF-α and TGF-β [4]: suppressed

TNF-α
number of cells positive to Caspase-3 ([3]; 30 ng/mL TNF-α, 96 hours): increased | tight junction structure (immunofluorescent staining) ([3]; 30 ng/mL TNF-α, 96 hours): destroyed | expression of TNF-α [3, 6]: increased | expressions of villin and MUC2 gene [3, 6]: decreased

CC(=O)N1CCN(c2ccc(OCC3COC(Cn4ccnc4)(c4ccc(Cl)cc4Cl)O3)cc2)CC1 (stereo not drawn) [ketoconazole]
midazolam's metabolic activity (CYP3A4) [5]: significantly inhibited

Cc1cccc(-c2[nH]ncc2-c2ccc3ncccc3n2)n1 [Repsox]
decrease/increase in expression of fibrosis markers caused by TNF-α and TGF-β [4]: suppressed
